The source of these data is patent US9371320B2, “Heterocyclic compound” (TAKEDA PHARMACEUTICAL COMPANY LIMITED, priority 2012, dated 2016).

Assay [1] deals with T1, Tyk2 (Homo sapiens, UniProt P29597).
T1 construct: purchased Invitrogen
The assay is described as follows: Tyk2 enzyme inhibition test (LANCE method). In kind it is biochemical. The note with it: test compound 1 μM; read-out: Inhibitory rate (%) Tyk2 1 μM. The procedure: Tyk2 Enzyme Inhibition Test
(§1) Tyk2 enzyme inhibitory activity of test compounds was measured by LANCE method (PerkinElmer). First, a test compound diluted with assay buffer (50 mM HEPES (pH=7.5), 10 mM MgCl2, 1 mM EGTA, 2 mM DTT, 0.01% Tween20, 0.01% BSA) was added to 384-well plate at 2 μL each. Then, a Tyk2 (Invitrogen) solution and a fluorescence-labeled peptide substrate (ULight-JAK1, PerkinElmer) solution diluted with assay buffer at 375 ng/mL and 300 nM, respectively were added at 2 μL each. Then, enzyme reaction was started by adding 2 μL each of ATP solution prepared with assay buffer at 30 μM. After the reaction at room temperature for 1 hr, Detection Buffer (PerkinElmer) prepared to be 20 mM EDTA, 4 nM europium-labeled anti-phosphotyrosine antibody (PerkinElmer) was added at 6 μL each. After standing at room temperature for 1 hr, fluorescence intensity (excitation wavelength 340 nm, fluorescence wavelength 665 nm, delay time 100 microsecond) was measured by a plate reader, Envision (PerkinElmer). The inhibitory activity of each compound was calculated as relative value where fluorescence intensity of a well without enzyme is considered as 100% inhibition.

Assay [2] deals with T2, JAK1 (Homo sapiens, UniProt P23458).
T2 construct: purchased Invitrogen
T2 sequence (P23458 whole entry): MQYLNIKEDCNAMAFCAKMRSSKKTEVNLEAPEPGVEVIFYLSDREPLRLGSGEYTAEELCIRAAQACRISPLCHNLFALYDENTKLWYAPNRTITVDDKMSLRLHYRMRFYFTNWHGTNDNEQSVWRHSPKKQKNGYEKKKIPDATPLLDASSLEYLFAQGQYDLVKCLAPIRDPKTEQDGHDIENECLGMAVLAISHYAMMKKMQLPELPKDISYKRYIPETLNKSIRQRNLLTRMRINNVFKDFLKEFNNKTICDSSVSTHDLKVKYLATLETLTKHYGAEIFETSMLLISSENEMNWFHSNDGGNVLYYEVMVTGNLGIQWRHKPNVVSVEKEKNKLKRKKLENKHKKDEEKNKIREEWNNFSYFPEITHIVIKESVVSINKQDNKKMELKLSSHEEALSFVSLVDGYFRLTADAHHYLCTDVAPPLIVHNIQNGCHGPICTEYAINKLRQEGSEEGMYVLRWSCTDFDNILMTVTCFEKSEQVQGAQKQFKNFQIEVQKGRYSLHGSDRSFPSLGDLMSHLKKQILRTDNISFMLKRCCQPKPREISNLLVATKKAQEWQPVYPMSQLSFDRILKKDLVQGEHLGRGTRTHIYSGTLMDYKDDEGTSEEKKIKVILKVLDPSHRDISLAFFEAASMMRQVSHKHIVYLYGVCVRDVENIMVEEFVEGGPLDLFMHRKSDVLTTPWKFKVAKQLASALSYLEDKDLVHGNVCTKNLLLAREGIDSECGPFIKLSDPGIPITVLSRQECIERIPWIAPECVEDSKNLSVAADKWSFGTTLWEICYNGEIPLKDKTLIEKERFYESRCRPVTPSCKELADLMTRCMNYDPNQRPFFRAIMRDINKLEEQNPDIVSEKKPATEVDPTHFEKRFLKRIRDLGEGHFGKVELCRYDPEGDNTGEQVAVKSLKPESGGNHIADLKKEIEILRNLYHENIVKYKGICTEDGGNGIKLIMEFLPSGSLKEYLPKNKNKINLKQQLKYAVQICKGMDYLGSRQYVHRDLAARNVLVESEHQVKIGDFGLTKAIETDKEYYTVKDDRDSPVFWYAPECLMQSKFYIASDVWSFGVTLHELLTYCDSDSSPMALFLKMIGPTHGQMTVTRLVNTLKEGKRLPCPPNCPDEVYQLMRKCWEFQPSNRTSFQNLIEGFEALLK
The assay is described as follows: JAK1 enzyme inhibition test (LANCE method). The assay is classed as biochemical. To be noted: for inhibition at 1 µM: test compound 1 μM, read-out: Inhibitory rate (%) JAK1 1 μM. The procedure:
JAK1 Enzyme Inhibition Test
as §1, with “JAK1 enzyme” for “Tyk2 enzyme”, “a JAK1” for “a Tyk2”, “at 187.5” for “at 375”, “at 150” for “at 30”
For orientation: TR-FRET usually uses a lanthanide donor and a delayed reading to cut background.

Structures are written as SMILES.

T1 sequence (P29597 whole entry): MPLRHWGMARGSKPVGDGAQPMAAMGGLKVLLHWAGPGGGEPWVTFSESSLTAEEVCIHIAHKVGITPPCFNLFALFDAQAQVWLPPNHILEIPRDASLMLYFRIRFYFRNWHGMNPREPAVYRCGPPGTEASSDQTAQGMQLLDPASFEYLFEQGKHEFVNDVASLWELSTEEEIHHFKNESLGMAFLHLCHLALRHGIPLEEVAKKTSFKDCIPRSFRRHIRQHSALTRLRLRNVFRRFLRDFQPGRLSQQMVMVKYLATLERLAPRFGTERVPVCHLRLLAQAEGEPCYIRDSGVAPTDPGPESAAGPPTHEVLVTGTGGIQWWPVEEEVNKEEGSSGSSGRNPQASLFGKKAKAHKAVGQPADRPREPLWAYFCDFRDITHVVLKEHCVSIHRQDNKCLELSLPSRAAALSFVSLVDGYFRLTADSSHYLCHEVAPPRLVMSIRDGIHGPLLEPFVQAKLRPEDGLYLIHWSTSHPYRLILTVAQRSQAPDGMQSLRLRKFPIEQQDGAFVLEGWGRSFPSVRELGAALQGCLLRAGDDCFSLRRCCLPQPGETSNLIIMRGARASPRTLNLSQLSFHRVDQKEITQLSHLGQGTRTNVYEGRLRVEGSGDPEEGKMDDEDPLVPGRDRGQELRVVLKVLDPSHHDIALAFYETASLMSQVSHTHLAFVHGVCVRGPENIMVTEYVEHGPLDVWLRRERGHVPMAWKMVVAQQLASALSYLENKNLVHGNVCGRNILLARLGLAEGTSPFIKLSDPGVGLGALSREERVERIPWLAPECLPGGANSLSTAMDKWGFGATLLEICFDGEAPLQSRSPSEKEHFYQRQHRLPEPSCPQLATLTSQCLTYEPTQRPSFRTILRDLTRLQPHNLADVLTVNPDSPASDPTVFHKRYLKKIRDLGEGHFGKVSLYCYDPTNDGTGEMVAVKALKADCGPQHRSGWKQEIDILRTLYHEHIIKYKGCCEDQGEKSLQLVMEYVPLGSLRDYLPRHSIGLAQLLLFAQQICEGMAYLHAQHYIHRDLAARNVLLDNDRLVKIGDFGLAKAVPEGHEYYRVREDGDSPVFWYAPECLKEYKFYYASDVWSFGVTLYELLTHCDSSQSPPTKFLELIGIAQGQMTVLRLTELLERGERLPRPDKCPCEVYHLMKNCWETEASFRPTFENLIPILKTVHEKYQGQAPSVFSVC

With `CCC(CC)n1cc(-c2csc(C#N)c2)c2c(=O)[nH]ccc21` [Example 9, 4-(4-oxo-1-(pentan-3-yl)-4,5-dihydro-1H-pyrrolo[3,2-c]pyridin-3-yl)thiophene-2-carbonitrile], the figures for the inhibition at 1 µM in assay [1] and in assay [2] were 93% and 97%, respectively.

With `COCCNC(=O)COc1ccc(-c2nn(-c3c(F)cccc3F)c3c(Cl)c[nH]c(=O)c23)cc1` [Example 217, 2-(4-(7-chloro-1-(2,6-difluorophenyl)-4-oxo-4,5-dihydro-1H-pyrazolo[4,3-c]pyridin-3-yl)phenoxy)-N-(2-methoxyethyl)acetamide], the inhibition at 1 µM in assay [1] was 99%. The inhibition at 10 µM in assay [2] (test compound 10 μM (Ex. 182-220), beside Tyk2 1 μM, read-out: Inhibitory rate (%) JAK1 10 μM) came out at 74%.

For `O=c1[nH]ccc2c1c(-c1ccc(C(F)(F)F)cc1)nn2C1CCCC1` [Example 51, 1-cyclopentyl-3-(4-(trifluoromethyl)phenyl)-1,5-dihydro-4H-pyrazolo[4,3-c]pyridin-4-one], the inhibition at 1 µM turned out to be 84% in assay [1] and 90% in assay [2].

As for `N#Cc1c[nH]c(=O)c2c(-c3cn[nH]c3)nn(-c3c(F)cccc3F)c12` [Example 228, 1-(2,6-difluorophenyl)-4-oxo-3-(1H-pyrazol-4-yl)-4,5-dihydro-1H-pyrazolo[4,3-c]pyridine-7-carbonitrile], the inhibition at 1 µM in assay [1] was determined as 99%; in assay [2], 85%.

As to `O=c1[nH]ccc2c1c(-c1ccccc1F)nn2C1CCCC1` [Example 56, 1-cyclopentyl-3-(2-fluorophenyl)-1,5-dihydro-4H-pyrazolo[4,3-c]pyridin-4-one], the inhibition at 1 µM in assay [1] came to 31%; in assay [2], 13%.

Turning to `CC(=O)N1CCN(c2ccc(-c3nn(-c4c(F)cccc4F)c4cc[nH]c(=O)c34)cc2)CC1` [Example 279, 3-(4-(4-acetylpiperazin-1-yl)phenyl)-1-(2,6-difluorophenyl)-1,5-dihydro-4H-pyrazolo[4,3-c]pyridin-4-one], the inhibition at 1 µM in assay [1] stood at 99%; in assay [2], 96%.

For `N#Cc1cc(-c2nn(C3CCCC3)c3cc[nH]c(=O)c23)cs1` [Example 14, 4-(1-cyclopentyl-4-oxo-4,5-dihydro-1H-pyrazolo[4,3-c]pyridin-3-yl)thiophene-2-carbonitrile], the values for the inhibition at 1 µM in assay [1] and in assay [2] were 98% and 99%, respectively.

In the case of `N#CCc1ccc(-c2nn(-c3c(F)cccc3F)c3c(Br)c[nH]c(=O)c23)cc1` [Example 104, (4-(7-bromo-1-(2,6-difluorophenyl)-4-oxo-4,5-dihydro-1H-pyrazolo[4,3-c]pyridin-3-yl)phenyl)acetonitrile], the inhibition at 1 µM in assay [1] is 99%; in assay [2], 94%.

For `NC(=O)c1cc(-c2nn(C3CCCC3)c3c(Cl)c[nH]c(=O)c23)cs1` [Example 296, 4-(7-chloro-1-cyclopentyl-4-oxo-4,5-dihydro-1H-pyrazolo[4,3-c]pyridin-3-yl)thiophene-2-carboxamide], the inhibition at 1 µM in assay [1] was 96%; in assay [2], 90%.

For the compound `NS(=O)(=O)c1ccc(-c2nn(C3CCC(O)CC3)c3cc[nH]c(=O)c23)cc1` (stereo not drawn) [Example 119, 4-(1-(4-hydroxycyclohexyl)-4-oxo-4,5-dihydro-1H-pyrazolo[4,3-c]pyridin-3-yl)benzenesulfonamide], the inhibition at 1 µM was determined as 99% in assay [1] and 100% in assay [2].

`O=C(CO)N1CCN(c2ccc(-c3nn(-c4c(F)cccc4F)c4cc[nH]c(=O)c34)cc2)CC1` [Example 312, 1-(2,6-difluorophenyl)-3-(4-(4-glycoloylpiperazin-1-yl)phenyl)-1,5-dihydro-4H-pyrazolo[4,3-c]pyridin-4-one]: the figures for the inhibition at 1 µM in assay [1] and in assay [2] were 99% and 94%, respectively.

As to `N#Cc1c[nH]c(=O)c2c(-c3ccsc3)cn(C3CCCC3)c12` [Example 106, 1-cyclopentyl-4-oxo-3-(3-thienyl)-4,5-dihydro-1H-pyrrolo[3,2-c]pyridine-7-carbonitrile], the inhibition at 1 µM in assay [1] was 98%; in assay [2], 91%.
